From US8106056B2, “Combination preparations comprising bifeprunox and a dopamine agonist” (Solvay Pharmaceuticals B.V., priority 2006, dated 2012)
“Also recorded” adds a separate entry of the source.

What was measured:
[1] = test system: MPTP-treated common marmosets; experiment: Locomotor activity in MPTP-treated common marmosets (automated activity cages); type: in vivo, common marmosets (Callithrix jacchus)
Method: (§1) These animals were L-DOPA responsive and not test drug naive. They had not been experimentally primed for dyskinesia although some dyskinesia was present.
(§2) Drug treatment: Bifeprunox mesylate was suspended in 10% sucrose solution and administered orally by gavage in a volume of 2.0 ml/kg. L-DOPA: L-3,4-Dihydroxyphenylalanine (L-dopa) methylester (Sigma Chemical Co, UK) was dissolved in 10% sucrose solution and administered orally by gavage in a volume of 2.0 ml/kg. Carbidopa: (Merck, Sharp and Dohme, UK) was administered orally as a suspension in 10% sucrose solution in a volume of 2.0 ml/kg. Domperidone: (2.0 mg/kg po, Sigma UK) was dissolved in 10% sucrose and administered 60 min prior to bifeprunox in a volume of 2.0 ml/kg, Bifeprunox (4 or 8 mg/kg po free base) or its vehicle (10% sucrose) was administered alone and in combination with L-DOPA (7.5 mg/kg po free base, given in combination with carbidopa, 12.5 mg/kg po) to MPTP-treated marmosets (n=6). Animals were treated with bifeprunox or its vehicle 90 min prior to administration of L-DOPA or its vehicle administration. Carbidopa was administered 30 minutes prior to administration of L-DOPA. Domperidone was administered 60 min prior to bifeprunox administration.
Behavioral Studies: In all studies, animals were acclimatised to behavioral study cages for 1 hour prior to treatment. The animals were placed individually into activity cages (50×60×70 cm) fitted with a clear perspex door to allow clear visibility for observation. Each cage was equipped with 8 horizontally orientated infrared photocell emitters and their corresponding detectors arranged so as to permit maximum assessment of movement. Locomotor activity was assessed as the number of light beam interruptions caused by movement of the animals accumulated in 10-minute intervals for up to 7 hours. The animals were allowed a 60-minute acclimatisation period in the activity cages during which baseline activity was assessed, before drug administration. ‘On’ Threshold was defined as 3 times baseline activity in MPTP-treated marmosets. Hyperactivity was defined as 3 times normal activity in naive marmosets. ‘On’ time was the period of time in minutes that activity was above the ‘On’ Threshold. Animals were treated with bifeprunox, vehicle and/or L-DOPA. Following drug treatment, animals were assessed for locomotor activity and disability as described below for up to 6 h following drug administration. The animals used in the study were in the automated activity cages for no longer than 8 h on any study day, and were allowed at least 3 days recovery period between drug treatments to ensure appropriate animal welfare consideration. The locomotor activity, motor disability and presence of dyskinesia were assessed as follows:
Locomotor Activity: In all studies the animals were acclimatised to behavioral study cages for 1 hour prior to bifeprunox treatment. Animals were then treated with appropriate drugs. Following treatment, animals were assessed for antiparkinsonian activity for up to 6 h using automated activity cages and by the rating of disability by an observer blinded to the treatment.
(§3) Data and Statistical Analysis: Data are presented as median locomotor activity (counts/30 min) or disability score (score over 10 min/30 min) over the 7 hour period of the experiment, or as total locomotor activity (counts/420 min) or disability (total score over 420 min). Data were analysed by Kruskall Wallis ANOVA and post-hoc Man-Whitney test where appropriate. Analyses were corrected for multiple comparisons using the formula: Acceptable probability=α/number of comparisons where α=5% A separate group of animals from those used in the study were treated with vehicle and were used for statistical comparison.

[2] = biological target: T1, serotonin 5-HT1A receptors (Homo sapiens, UniProt P08908); details: cited from earlier work
T1 sequence (P08908 1-422): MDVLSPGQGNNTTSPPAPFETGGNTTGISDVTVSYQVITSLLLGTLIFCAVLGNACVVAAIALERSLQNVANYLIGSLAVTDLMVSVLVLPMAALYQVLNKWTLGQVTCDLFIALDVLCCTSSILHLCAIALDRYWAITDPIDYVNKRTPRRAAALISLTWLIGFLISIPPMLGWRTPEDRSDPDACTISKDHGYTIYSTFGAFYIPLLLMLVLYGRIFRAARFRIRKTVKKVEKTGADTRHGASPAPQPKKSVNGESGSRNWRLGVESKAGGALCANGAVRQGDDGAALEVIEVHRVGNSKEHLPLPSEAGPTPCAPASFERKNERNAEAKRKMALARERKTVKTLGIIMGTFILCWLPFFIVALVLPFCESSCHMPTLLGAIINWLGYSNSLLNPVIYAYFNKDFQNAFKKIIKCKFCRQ

dopamine D2/3 receptors = details: cited from earlier work
[3] = test system: MPTP-treated common marmosets; experiment: Disability rating in MPTP-treated common marmosets; type: in vivo, common marmosets (Callithrix jacchus)
Method: as §1, §2
Disability and dyskinesia scores: Disability and dyskinesia was assessed before, and during the last 10 minutes in every 30 min period after bifeprunox administration for up to 6 hours following drug treatment. The following disability rating scales were used:
Rating of disability: The disability of animals was scored as follows; alertness (normal 0, sleepy 2); reaction (normal 0, reduced 1, slow 2, absent 3); checking movements (present 0, reduced 1, absent 2); attention and eye movements (normal 0, abnormal 1); posture (normal 0, abnormal trunk+1, abnormal limbs+1, abnormal tail+1, or grossly abnormal 4); balance/co-ordination (normal 0, impaired 1, unstable 2, spontaneous falls 3); vocalisation (normal 0, reduced 1, absent 2); motility (normal 0, bradykinesia/hyperkinesia 1, akinesia/hyperkinesia 2). Sedation was noted if present.
as §3

[4] = bifeprunox 4 mg/kg po 90 min prior to L-DOPA 7.5 mg/kg po plus carbidopa 12.5 mg/kg po
[5] = bifeprunox 4 mg/kg po alone, p<0.05, Mann Whitney
[6] = bifeprunox 8 mg/kg po 90 min prior to L-DOPA 7.5 mg/kg po plus carbidopa 12.5 mg/kg po
[7] = bifeprunox 8 mg/kg po alone, p<0.05, Mann Whitney
[8] = L-DOPA 7.5 mg/kg po plus carbidopa 12.5 mg/kg po 30 min prior

SMILES: O=c1[nH]c2cccc(N3CCN(Cc4cccc(-c5ccccc5)c4)CC3)c2o1 [bifeprunox, 7-[4-([1,1′-biphenyl]-3-ylmethyl)-1-piperazinyl]-2(3H)-benzoxazolone]
- Locomotor activity compared to L-DOPA alone and bifeprunox (4 mg/kg po) alone [1, 4]: tended to increase
- locomotor On-Time compared to the single treatments [1, 4]: slightly greater than that seen after L-DOPA alone and bifeprunox
- locomotor activity compared to baseline [1, 4]: increased
- median duration of activity (locomotor On-Time) [1, 4]: 390 min/420 min
- locomotor activity compared to vehicle administration ([1]; bifeprunox 4 mg/kg po alone): increased
- median duration of activity (locomotor On-Time) ([1]; bifeprunox 4 mg/kg po alone): 240 min/420 min
- Total locomotor activity and locomotor 'On-Time' versus vehicle [1, 5]: greater than in vehicle-treated animals
- Total locomotor activity and duration of activity (On-time) compared to bifeprunox (8 mg/kg po) alone and L-DOPA plus carbidopa alone [1, 6]: not different
- locomotor On-Time compared to bifeprunox alone [1, 6]: slightly shorter than bifeprunox alone
- locomotor activity compared to baseline [1, 6]: increased
- median duration of activity (locomotor On-Time) [1, 6]: 300 min/420 min
- locomotor activity compared to vehicle administration ([1]; bifeprunox 8 mg/kg po alone): increased
- median duration of activity (locomotor On-Time) ([1]; bifeprunox 8 mg/kg po alone): 345 min/420 min
- Total locomotor activity versus vehicle [1, 7]: greater than vehicle-treated animals
- total locomotor activity and locomotor 'On-Time' compared to L-DOPA alone ([1]; bifeprunox 4 or 8 mg/kg po given in combination with L-DOPA): tended to increase
- duration of activity ('on'-time) following L-DOPA ([1]; co-administration with L-DOPA): increased
- peak locomotor activity as observed after L-DOPA alone ([1]; combined treatment with L-DOPA, hyperactivity was not observed): reduced
- functional activity at serotonin 5-HT1A receptors [2]: partial agonist; also recorded: full agonism
- functional activity at dopamine D2/3 receptors (dopamine D2/3 receptors): partial agonist
- Duration of activity (disability On-Time) [3, 4]: 360 min/420 min
- Duration of activity (disability On-Time) compared to bifeprunox alone [3, 4]: tended to increase
- disability scores over the period of the study [3, 4]: decreased
- Median duration of activity (disability On-Time) ([3]; bifeprunox 4 mg/kg po alone): 210 min/420 min
- disability scores compared to vehicle administration [3, 5]: decreased
- Duration of activity (disability On-Time) [3, 6]: 165 min/420 min
- Duration of activity (disability On-Time) compared to bifeprunox (8 mg/kg po) alone or L-DOPA plus carbidopa [3, 6]: not different
- disability scores [3, 6]: decreased
- Duration of activity (disability On-Time) ([3]; bifeprunox 8 mg/kg po alone): 225 min/420 min
- Total decrease in disability versus vehicle ([3]; bifeprunox 8 mg/kg po alone): lower than vehicle-treated animals
- disability scores compared to vehicle treatment [3, 7]: decreased

SMILES: N[C@@H](Cc1ccc(O)c(O)c1)C(=O)O [L-DOPA, L-3,4-Dihydroxyphenylalanine, reference compound]
- locomotor activity compared to vehicle administration [1, 8]: increased
- median duration of activity (locomotor On-Time) [1, 8]: 180 min/420 min
- Total locomotor activity and locomotor 'on-time' versus vehicle ([1]; L-DOPA 7.5 mg/kg po plus carbidopa 12.5 mg/kg po, p<0.05, Mann Whitney): greater than vehicle-treated animals
- disability 'On-Time' [3, 8]: 120 min/420 min
- time at which peak disability score was reached after administration (median) [3, 8]: 75 min
- disability scores compared to vehicle administration ([3]; L-DOPA 7.5 mg/kg po plus carbidopa 12.5 mg/kg po 30 min prior, p<0.05, Mann Whitney): decreased
